In BindingDB's records for doi:10.1016/j.bmcl.2015.12.061 (Auburn University, 2016) one finds IC50 data, which are given here for 3 molecules.

The target of the assay is S-adenosylhomocysteine hydrolase (Homo sapiens). In words: Inhibition of S-adenosylhomocysteine hydrolase (unknown origin).
The molecule `Nc1ncc(Br)c2c1ncn2[C@@H]1C=C(CO)[C@@H](O)[C@H]1O` yielded an IC50 of 2.7 nM.
Under `Nc1ncc(Br)c2c1ncn2C1=C[C@H](CO)[C@@H](O)[C@H]1O` stands 13 nM; under `Nc1ncc(Br)c2c1ncn2C1=C[C@@H](CO)[C@H](O)[C@@H]1O`, 10000 nM.

In general, IC50 refers to the concentration at which inhibition is half-maximal. A high value points to a need for much substance.
